The target in one assay is T1, mouse TAAR1 (Mus musculus, UniProt Q923Y8).
T1 construct: expressed in transfected cells; host or cells: HEK293 (ATCC # CRL-1573), stably transfected with pIRESneo2 expression plasmid
The assay can be described thus: TAAR1 radioligand binding with [3H]-rac-2-(1,2,3,4-tetrahydro-1-naphthyl)-2-imidazoline, membranes of stably transfected HEK293 cells. Particulars: first value of the cell, read-out: Ki (μM) mouse/rat: mouse. A digest of the protocol:
(§1)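 Competition binding: competitors spanning 10 pM–30 μM displace 60 nM [3H]-rac-2-(1,2,3,4-tetrahydro-1-naphthyl)-2-imidazoline from stably transfected HEK293 membranes (mouse or rat receptor), 30 min, 4 °C, pH 7.0 buffer with Mg2+/Ca2+. Bound label counted after GF/C filtration; 10 μM unlabelled ligand defines non-specific binding.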

In a further assay the target is T2, rat TAAR1 (Rattus norvegicus, UniProt Q923Y9).
T2 construct: expressed in transfected cells; host or cells: HEK293 (ATCC # CRL-1573), stably transfected with pIRESneo2 expression plasmid
T2 sequence (Q923Y9 whole entry): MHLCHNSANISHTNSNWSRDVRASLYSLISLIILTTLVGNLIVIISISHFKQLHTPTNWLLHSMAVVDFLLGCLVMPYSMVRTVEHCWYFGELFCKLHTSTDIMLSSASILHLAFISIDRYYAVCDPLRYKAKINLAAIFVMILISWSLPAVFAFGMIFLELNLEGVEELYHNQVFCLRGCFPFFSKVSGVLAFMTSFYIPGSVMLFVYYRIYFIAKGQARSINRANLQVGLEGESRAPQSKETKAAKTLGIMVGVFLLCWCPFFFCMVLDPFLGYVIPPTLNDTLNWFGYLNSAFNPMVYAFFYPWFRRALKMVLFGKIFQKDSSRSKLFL
The assay is described as above. Particulars: second value of the cell, read-out: Ki (μM) mouse/rat: rat. A digest of the protocol: as §1

T1 sequence (Q923Y8 whole entry): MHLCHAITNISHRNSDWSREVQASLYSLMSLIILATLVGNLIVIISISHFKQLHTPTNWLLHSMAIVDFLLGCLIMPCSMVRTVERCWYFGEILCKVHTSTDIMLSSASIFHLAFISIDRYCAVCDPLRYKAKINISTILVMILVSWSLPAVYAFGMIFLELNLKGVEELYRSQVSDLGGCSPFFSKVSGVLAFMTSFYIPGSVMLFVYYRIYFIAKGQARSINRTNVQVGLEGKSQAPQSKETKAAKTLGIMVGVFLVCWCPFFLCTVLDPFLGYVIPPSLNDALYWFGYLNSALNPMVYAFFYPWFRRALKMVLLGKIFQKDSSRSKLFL

On to `NC1=N[C@@H](CCc2ccc(NC(=O)c3cc(Cl)nc(Cl)c3)cc2)CO1` [Example 175, (S)-N-(4-(2-(2-Amino-4,5-dihydrooxazol-4-yl)ethyl)phenyl)-2,6-dichloroisonicotinamide], for which the Ki at mouse TAAR1 turned out to be 0.0008 µM; at rat TAAR1 it was 0.0009 µM.

As to `CCc1ccc(C(=O)Nc2ccc(CC[C@H]3COC(N)=N3)cc2)nc1` [Example 178, (S)-N-(4-(2-(2-Amino-4,5-dihydrooxazol-4-yl)ethyl)phenyl)-5-ethylpicolinamide], the Ki at mouse TAAR1 and on rat TAAR1 was 0.0004 µM in each case.

Take `Cc1nc(C(=O)Nc2ccc(CC[C@H]3COC(N)=N3)cc2)c(C)o1` [Example 179, (S)-N-(4-(2-(2-Amino-4,5-dihydrooxazol-4-yl)ethyl)phenyl)-2,5-dimethyloxazole-4-carboxamide]: the Ki at mouse TAAR1 is 0.0059 µM; on rat TAAR1, 0.0023 µM.

In the case of `NC1=N[C@@H](CCc2ccc(N3Cc4ccc(Cl)cc4C3=O)cc2)CO1` [Example 186, 2-{4-[2-((S)-2-Amino-4,5-dihydro-oxazol-4-yl)-ethyl]-phenyl}-6-chloro-2,3-dihydro-isoindol-1-one], the Ki on mouse TAAR1 is 0.0029 µM; on rat TAAR1, 0.001 µM.

On to `CC(C)c1sc(N(C)C)nc1C(=O)Nc1ccc(CC[C@H]2COC(N)=N2)cc1` [Example 189, (S)-N-(4-(2-(2-Amino-4,5-dihydrooxazol-4-yl)ethyl)phenyl)-2-(dimethylamino)-5-isopropylthiazole-4-carboxamide], for which the Ki at mouse TAAR1 was determined as 0.0008 µM; on rat TAAR1 it was 0.0018 µM.

For `COc1cc(C(=O)Nc2ccc(CC[C@H]3COC(N)=N3)cc2)nc(OC)n1` [Example 190, (S)-N-(4-(2-(2-Amino-4,5-dihydrooxazol-4-yl)ethyl)phenyl)-2,6-dimethoxypyrimidine-4-carboxamide], the figures for the Ki on mouse TAAR1 and at rat TAAR1 were 0.0041 µM and 0.004 µM, respectively.

In the case of `Cc1ocnc1C(=O)Nc1ccc(CC[C@H]2COC(N)=N2)cc1` [Example 191, (S)-N-(4-(2-(2-Amino-4,5-dihydrooxazol-4-yl)ethyl)phenyl)-5-methyloxazole-4-carboxamide], the Ki stood at 0.0042 µM at mouse TAAR1 and 0.0021 µM at rat TAAR1.

For `Cn1cc(Cl)c(C(=O)Nc2ccc(CC[C@H]3COC(N)=N3)cc2)n1` [Example 194, (S)-N-(4-(2-(2-Amino-4,5-dihydrooxazol-4-yl)ethyl)phenyl)-4-chloro-1-methyl-1H-pyrazole-3-carboxamide], the results for the Ki at mouse TAAR1 and on rat TAAR1 were 0.0091 µM and 0.0035 µM, respectively.

With `NC1=N[C@@H](CCc2ccc(NC(=O)c3ccn(C(F)F)n3)cc2)CO1` [Example 195, (S)-N-(4-(2-(2-Amino-4,5-dihydrooxazol-4-yl)ethyl)phenyl)-1-(difluoromethyl)-1H-pyrazole-3-carboxamide], the results for the Ki at mouse TAAR1 and on rat TAAR1 were 0.0037 µM and 0.0023 µM, respectively.

As to `CC(C)(C)c1cc(C(=O)Nc2ccc(CC[C@H]3COC(N)=N3)cc2)ccn1` [Example 197, (S)-N-(4-(2-(2-Amino-4,5-dihydrooxazol-4-yl)ethyl)phenyl)-2-tert-butylisonicotinamide], the values for the Ki at mouse TAAR1 and at rat TAAR1 were 0.003 µM and 0.0049 µM, respectively.

For `CC(C)c1cc(C(=O)Nc2ccc(CC[C@H]3COC(N)=N3)cc2)ccn1` [Example 198, (S)-N-(4-(2-(2-Amino-4,5-dihydrooxazol-4-yl)ethyl)phenyl)-2-isopropylisonicotinamide], the Ki on mouse TAAR1 is 0.0036 µM; on rat TAAR1, 0.0029 µM.

Take `NC1=N[C@@H](CCc2ccc(NC(=O)c3ccnc(-c4ccncc4)c3)cc2)CO1` [Example 199, (S)-N-(4-(2-(2-Amino-4,5-dihydrooxazol-4-yl)ethyl)phenyl)-2,4′-bipyridine-4-carboxamide]: the Ki at mouse TAAR1 was determined as 0.0027 µM; at rat TAAR1, 0.0037 µM.

As for `Cc1ccc(C(=O)Nc2ccc(CC[C@H]3COC(N)=N3)cc2)s1` [Example 201, (S)-N-(4-(2-(2-Amino-4,5-dihydrooxazol-4-yl)ethyl)phenyl)-5-methylthiophene-2-carboxamide], the figures for the Ki on mouse TAAR1 and on rat TAAR1 were 0.0005 µM and 0.0007 µM, respectively.

For `Cc1cc(C(=O)Nc2ccc(CC[C@H]3COC(N)=N3)cc2)sc1C` [Example 202, (S)-N-(4-(2-(2-Amino-4,5-dihydrooxazol-4-yl)ethyl)phenyl)-4,5-dimethylthiophene-2-carboxamide], the Ki on mouse TAAR1 came out at 0.0007 µM; at rat TAAR1, 0.0004 µM.

Take `CCc1nc(OC)cc(C(=O)Nc2ccc(CC[C@H]3COC(N)=N3)cc2)n1` [Example 203, 2-Ethyl-6-methoxy-pyrimidine-4-carboxylic acid {4-[2-((S)-2-amino-4,5-dihydro-oxazol-4-yl)-ethyl]-phenyl}-amide]: the Ki at mouse TAAR1 was determined as 0.0008 µM; at rat TAAR1, 0.0014 µM.

Turning to `C[C@@H]1OC(N)=N[C@H]1CCc1ccc(NC(=O)c2ccc(Cl)cc2)cc1` [Example 205, N-(4-(2-((4S,5S)-2-Amino-5-methyl-4,5-dihydrooxazol-4-yl)ethyl)phenyl)-4-chlorobenzamide], the Ki on mouse TAAR1 was 0.0007 µM; at rat TAAR1, 0.0005 µM.

As for `C[C@H]1OC(N)=N[C@H]1CCc1ccc(NC(=O)c2ccc(Cl)cc2)cc1` [Example 206, N-(4-(2-((4S,5R)-2-Amino-5-methyl-4,5-dihydrooxazol-4-yl)ethyl)phenyl)-4-chlorobenzamide], the results for the Ki on mouse TAAR1 and at rat TAAR1 were 0.0076 µM and 0.0013 µM, respectively.

As for `COc1cc(C(=O)Nc2ccc(CC[C@H]3COC(N)=N3)cc2)nc(C(C)C)n1` [Example 207, 2-Isopropyl-6-methoxy-pyrimidine-4-carboxylic acid {4-[2-((S)-2-amino-4,5-dihydro-oxazol-4-yl)-ethyl]-phenyl}-amide], the Ki at mouse TAAR1 was found to be 0.0007 µM; at rat TAAR1, 0.0011 µM.

As to `CCc1cnc(C(=O)Nc2ccc(CC[C@H]3COC(N)=N3)cc2)cn1` [Example 208, (S)-N-(4-(2-(2-Amino-4,5-dihydrooxazol-4-yl)ethyl)phenyl)-5-ethylpyrazine-2-carboxamide], the Ki at mouse TAAR1 amounted to 0.0028 µM; at rat TAAR1, 0.0023 µM.

With `NC1=N[C@@H](CCc2ccc(NC(=O)c3cnc(C(F)(F)F)nc3C3CC3)cc2)CO1` [Example 209, (S)-N-(4-(2-(2-Amino-4,5-dihydrooxazol-4-yl)ethyl)phenyl)-4-cyclopropyl-2-(trifluoromethyl)pyrimidine-5-carboxamide], the Ki at mouse TAAR1 worked out at 0.0013 µM; on rat TAAR1, 0.0035 µM.

On to `CCc1cncc(C(=O)Nc2ccc(CC[C@H]3COC(N)=N3)cc2)n1` [Example 211, (S)-N-(4-(2-(2-Amino-4,5-dihydrooxazol-4-yl)ethyl)phenyl)-6-ethylpyrazine-2-carboxamide], for which the Ki at mouse TAAR1 was found to be 0.0023 µM; on rat TAAR1, 0.0024 µM.

Take `CCc1ocnc1C(=O)Nc1ccc(CC[C@H]2COC(N)=N2)cc1` [Example 213, (S)-N-(4-(2-(2-Amino-4,5-dihydrooxazol-4-yl)ethyl)phenyl)-5-ethyloxazole-4-carboxamide]: the Ki turned out to be 0.0015 µM on mouse TAAR1 and 0.0022 µM at rat TAAR1.

For the compound `NC1=N[C@@H](CCc2ccc(NC(=O)c3ncoc3C3CC3)cc2)CO1` [Example 214, (S)-N-(4-(2-(2-Amino-4,5-dihydrooxazol-4-yl)ethyl)phenyl)-5-cyclopropyloxazole-4-carboxamide], the Ki came out at 0.0011 µM at mouse TAAR1 and 0.0028 µM on rat TAAR1.

As for `CC(C)c1ocnc1C(=O)Nc1ccc(CC[C@H]2COC(N)=N2)cc1` [Example 215, (S)-N-(4-(2-(2-Amino-4,5-dihydrooxazol-4-yl)ethyl)phenyl)-5-isopropyloxazole-4-carboxamide], the Ki worked out at 0.0012 µM at mouse TAAR1 and 0.0038 µM at rat TAAR1.

`Cc1nc(C(=O)Nc2ccc(CC[C@H]3COC(N)=N3)cc2)c(C(F)(F)F)o1` [Example 216, (S)-N-(4-(2-(2-Amino-4,5-dihydrooxazol-4-yl)ethyl)phenyl)-2-methyl-5-(trifluoromethyl)oxazole-4-carboxamide]: the Ki on mouse TAAR1 amounted to 0.0027 µM; on rat TAAR1, 0.0061 µM.

Regarding `CCc1nc(C(=O)Nc2ccc(CC[C@H]3COC(N)=N3)cc2)co1` [Example 217, (S)-N-(4-(2-(2-Amino-4,5-dihydrooxazol-4-yl)ethyl)phenyl)-2-ethyloxazole-4-carboxamide], the results for the Ki at mouse TAAR1 and on rat TAAR1 were 0.0051 µM and 0.0025 µM, respectively.

As to `CCOc1cnc(C(=O)Nc2ccc(CC[C@@H]3N=C(N)O[C@H]3C)cc2)cn1` [Example 218, 5-Ethoxy-pyrazine-2-carboxylic acid {4-[2-((4S,5S)-2-amino-5-methyl-4,5-dihydro-oxazol-4-yl)-ethyl]-phenyl}-amide], the values for the Ki at mouse TAAR1 and at rat TAAR1 were 0.0014 µM and 0.0035 µM, respectively.

Regarding `COc1cc(C(=O)Nc2ccc(CC[C@@H]3N=C(N)O[C@H]3C)cc2)nc(Cl)n1` [Example 219, 2-Chloro-6-methoxy-pyrimidine-4-carboxylic acid {4-[2-((4S,5S)-2-amino-5-methyl-4,5-dihydro-oxazol-4-yl)-ethyl]-phenyl}-amide], the Ki on mouse TAAR1 is 0.0048 µM; at rat TAAR1, 0.0037 µM.

`Cc1ocnc1C(=O)Nc1ccc(CC[C@@H]2N=C(N)O[C@H]2C)cc1` [Example 222, 5-Methyl-oxazole-4-carboxylic acid {4-[2-((4S,5S)-2-amino-5-methyl-4,5-dihydro-oxazol-4-yl)-ethyl]-phenyl}-amide]: the Ki at mouse TAAR1 was found to be 0.0071 µM; at rat TAAR1, 0.004 µM.

For the compound `C[C@@H]1OC(N)=N[C@H]1CCc1ccc(NC(=O)c2ccc(C(F)(F)F)cn2)cc1` [Example 226, 5-Trifluoromethyl-pyridine-2-carboxylic acid {4-[2-((4S,5S)-2-amino-5-methyl-4,5-dihydro-oxazol-4-yl)-ethyl]-phenyl}-amide], the Ki turned out to be 0.0011 µM on mouse TAAR1 and 0.0021 µM on rat TAAR1.
